{
  "source": "patent US12595251B2",
  "about": "“Amidines and amidine analogs for the treatment of bacterial infections and potentiation antibiotics” (GEORGIA STATE UNIVERSITY RESEARCH FOUNDATION, INC., priority 2018, dated 2026)",
  "key": {"[1]": {"tested_on": "E. coli", "assay": "Sensitization of E. coli to erythromycin (sensitization fold from IC90, OD600, 20 h)", "assay_type": "cell-based, Escherichia coli", "details": "NA=no activity; for SF (E. coli) at 25 μM: compound at 25 μM; for SF (E. coli) at 12.5 μM: compound at 12.5 μM", "experimental": "(§1) E. coli bacteria were cultured in Miller's broth at 37° C. overnight prior to treatment. B. subtilis bacteria were cultured in nutrient broth at 37° C. overnight prior to treatment. […] Bacterial density was measured based on OD600."}, "[2]": {"tested_on": "B. subtilis", "assay": "Sensitization of B. subtilis to erythromycin (sensitization fold from IC90, OD600, 20 h)", "assay_type": "cell-based, Bacillus subtilis", "details": "for SF (B. subtilis) at 6 μM: compound at 6 μM; for SF (B. subtilis) at 12 μM: compound at 12 μM; for SF (B. subtilis): sensitization fold = IC90 of erythromycin without/with compound, compound concentration not given, T=toxic", "experimental": "as §1"}, "[3]": {"tested_on": "MRSA", "assay": "Sensitization of MRSA to erythromycin (sensitization fold from IC90)", "assay_type": "cell-based, Staphylococcus aureus", "details": "for SF (MRSA) at 12 μM: compound at 12 μM; for SF (MRSA) at 12 μM / SF (MRSA) at 25 μM: NA=no activity; for SF (MRSA) at 25 μM: compound at 25 μM; for SF (MRSA) at 4 μM: compound at 4 μM", "experimental": "MRSA bacteria were cultured in nutrient broth at 37° C. overnight prior to treatment. […] Bacterial density was measured based on OD600."}, "[4]": {"tested_on": "MRSA", "assay": "MIC of compounds against MRSA (OD600, 48 h)", "assay_type": "cell-based", "details": "Staphylococcus aureus; for MIC: MIC = 90% growth inhibition, compound alone, 48 h", "experimental": "Bacteria were then cultured with varying concentration of the compounds shown below for 48 hours, and then bacterial density was measured based on OD600. The minimum inhibitory concentration (MIC, 90% growth inhibition) was calculated for each compound, as shown in Table 4 (NA=no activity; --=not measured)."}, "[5]": {"tested_on": "wild-type E. coli", "assay": "Sensitization of wild-type E. coli toward antibiotics (MIC of antibiotic with/without sensitizer)", "assay_type": "cell-based, Escherichia coli", "details": "wild-type E. coli; for MIC: Escherichia coli, 24 h, antibiotic alone, read-out: MIC of AB only; for MIC of AB with Compound C (5 μg/ml) / FIC: antibiotic plus Compound C 5 μg/ml; for FIC: fractional inhibitory concentration", "experimental": "Bacteria were cultured with the antibiotic at various concentrations in the presence or absence of bacterial sensitizer for 24 hours at 37° C. Bacterial growth density was determined by measuring OD600 (absorbance measured at a wavelength of 600 nm). […]\nThe formula for calculating FIC is shown below: […]"}, "[6]": {"tested_on": "NDM-1 over-expressing E. coli", "assay": "microbe, parasite or virus in culture", "assay_type": "cell-based, Escherichia coli", "details": "for MIC: Escherichia coli, antibiotic alone, read-out: MIC of AB only; for FIC / MIC of AB with Compound C (5 μg/ml): antibiotic plus Compound C 5 μg/ml"}},
  "data": [
    {"smiles": "Cc1cc(COc2cccc(C(=N)N)c2)cc(COc2cccc(C(=N)N)c2)c1", "note": "[drawing 743]", "values": [
      {"measurement": "SF (E. coli) at 12 μM", "setting": "[1]; erythromycin, compound at 12 μM", "result": 2, "unit": "fold"},
      {"measurement": "SF (E. coli) at 25 μM", "setting": "[1]; erythromycin", "result": 8, "unit": "fold"},
      {"measurement": "SF (B. subtilis) at 6 μM", "setting": "[2]; erythromycin, NA=no activity", "result": 8, "unit": "fold"},
      {"measurement": "SF (B. subtilis) at 12 μM", "setting": "[2]; erythromycin, NA=no activity", "result": 32, "unit": "fold"}
    ]},
    {"smiles": "Cc1cc(COc2ccc(C(=N)N)cc2)cc(COc2ccc(C(=N)N)cc2)c1", "note": "[drawing 834]", "values": [
      {"measurement": "SF (MRSA) at 6 μM", "setting": "[3]; compound at 6 μM", "result": "32-fold at 6 μM"},
      {"measurement": "MIC", "setting": "[4]", "result": 25, "unit": "µM"}
    ]},
    {"smiles": "Cc1cc(CSc2ccc(C3=NCCN3)cc2)cc(CSc2ccc(C3=NCCN3)cc2)c1", "note": "[drawing 745]", "values": [
      {"measurement": "SF (B. subtilis) at 3 μM", "setting": "[2]; erythromycin, compound at 3 μM", "result": 4, "unit": "fold"},
      {"measurement": "SF (B. subtilis) at 6 μM", "setting": "[2]; erythromycin, NA=no activity", "result": 16, "unit": "fold"}
    ]},
    {"smiles": "Cc1cc(COc2ccc(CN)cc2)cc(COc2ccc(CN)cc2)c1", "note": "[drawing 733]", "values": [
      {"measurement": "SF (E. coli) at 25 μM", "setting": "[1]; erythromycin", "result": "4-fold at 25 μM"},
      {"measurement": "SF (B. subtilis) at 12.5 μM", "setting": "[2]; erythromycin, compound at 12.5 μM, NA=no activity", "result": "16-fold at 12.5 μM"}
    ]},
    {"smiles": "CC(C)(C)c1cc(COc2ccc(C(=N)N)cc2F)cc(COc2ccc(C(=N)N)cc2F)c1", "note": "[drawing 844]", "values": [
      {"measurement": "inhibition at 6 µM", "setting": "[4]; read-out: Growth inhibition of MRSA at 6 μM, compound alone at 6 μM, NA=no activity", "result": 60, "unit": "%"}
    ]},
    {"smiles": "CCCNC(=N)c1ccc(COc2cc(C)cc(OCc3ccc(C(=N)NCCC)cc3)c2)cc1", "note": "[drawing 841]", "values": [
      {"measurement": "SF (MRSA) at 12 μM", "setting": "[3]", "result": 8, "unit": "fold"},
      {"measurement": "SF (MRSA) at 25 μM", "setting": "[3]", "result": "8-16 fold"},
      {"measurement": "inhibition at 25 µM", "setting": "[4]; read-out: Growth inhibition of MRSA at 25 μM, compound alone at 25 μM, NA=no activity", "result": 30, "unit": "%"}
    ]},
    {"smiles": "O=C(N[C@H](CO)[C@H](O)c1ccc([N+](=O)[O-])cc1)C(Cl)Cl", "note": "[Chloramphenicol, chloramphenicol]", "values": [
      {"measurement": "MIC", "setting": "[5]", "result": 12.5, "unit": "µg/mL"},
      {"measurement": "MIC of AB with Compound C (5 μg/ml)", "setting": "[5]", "result": 1.5, "unit": "µg/mL"},
      {"measurement": "FIC", "setting": "[5]", "result": 0.22},
      {"measurement": "MIC", "setting": "[6]", "result": 6.25, "unit": "µg/mL"},
      {"measurement": "Sensitization fold", "setting": "[6]; MIC of antibiotic only / MIC with Compound C 5 μg/ml", "result": 8},
      {"measurement": "FIC", "setting": "[6]", "result": 0.22},
      {"measurement": "MIC of AB with Compound C (5 μg/ml)", "setting": "[6]", "result": 0.8, "unit": "µg/mL"}
    ]},
    {"smiles": "Cc1cc(CCc2ccc(C(=N)N)cc2)cc(CCc2ccc(C(=N)N)cc2)c1", "note": "[drawing 734]", "values": [
      {"measurement": "SF (E. coli) at 12.5 μM", "setting": "[1]; erythromycin", "result": 8, "unit": "fold"},
      {"measurement": "SF (E. coli) at 25 μM", "setting": "[1]; erythromycin", "result": 32, "unit": "fold"},
      {"measurement": "SF (B. subtilis) at 6 μM", "setting": "[2]; erythromycin, NA=no activity", "result": "32-fold at 6 μM"}
    ]},
    {"smiles": "CCC[C@@H]1C[C@@H](C(=O)N[C@@H]([C@H]2O[C@H](SC)[C@H](O)[C@@H](O)[C@H]2O)[C@H](C)Cl)N(C)C1", "note": "[Clindamycin, clindamycin]", "values": [
      {"measurement": "MIC", "setting": "[5]", "result": 250, "unit": "µg/mL"},
      {"measurement": "MIC of AB with Compound C (5 μg/ml)", "setting": "[5]", "result": 4, "unit": "µg/mL"},
      {"measurement": "FIC", "setting": "[5]", "result": 0.12},
      {"measurement": "MIC", "setting": "[6]", "result": 250, "unit": "µg/mL"},
      {"measurement": "FIC", "setting": "[6]", "result": 0.12},
      {"measurement": "MIC of AB with Compound C (5 μg/ml)", "setting": "[6]", "result": 4, "unit": "µg/mL"}
    ]},
    {"smiles": "Cc1cc(COc2ccc(C3=NCCCN3)cc2)cc(COc2ccc(C3=NCCCN3)cc2)c1", "note": "[drawing 842]", "values": [
      {"measurement": "SF (MRSA) at 12 μM", "setting": "[3]", "result": 4, "unit": "fold"},
      {"measurement": "SF (MRSA) at 25 μM", "setting": "[3]", "result": 8, "unit": "fold"}
    ]},
    {"smiles": "Cc1cc(CSc2ccc(C(=N)N)cc2)cc(CSc2ccc(C(=N)N)cc2)c1", "note": "[drawing 744]", "values": [
      {"measurement": "SF (E. coli) at 12.5 μM", "setting": "[1]; erythromycin", "result": 32, "unit": "fold"},
      {"measurement": "SF (B. subtilis) at 6 μM", "setting": "[2]; erythromycin, NA=no activity", "result": 32, "unit": "fold"}
    ]},
    {"smiles": "N=C(N)c1ccc(OCc2ccc(COc3ccc(C(=N)N)cc3)cc2)cc1", "note": "[drawing 728]", "values": [
      {"measurement": "SF (B. subtilis)", "setting": "[2]; NA=no activity", "result": "<2"}
    ]},
    {"smiles": "COc1cc(C(=N)N)ccc1OCc1cccc(COc2ccc(C(=N)N)cc2OC)c1F", "note": "[drawing 731]", "values": [
      {"measurement": "SF (B. subtilis) at 6 μM", "setting": "[2]; erythromycin, NA=no activity", "result": "4-fold at 6 μM"}
    ]},
    {"smiles": "Cc1cc(COc2ccc(C(=N)NC(C)C)cc2)cc(COc2ccc(C(=N)NC(C)C)cc2)c1", "note": "[drawing 835]", "values": [
      {"measurement": "SF (MRSA) at 4 μM", "setting": "[3]", "result": "32-fold at 4 μM"},
      {"measurement": "MIC", "setting": "[4]", "result": 25, "unit": "µM"}
    ]},
    {"smiles": "Cc1cc(COc2ccc(C3=NCCN3)cc2)cc(COc2ccc(C3=NCCN3)cc2)c1", "note": "[drawing 723]", "values": [
      {"measurement": "SF (B. subtilis)", "setting": "[2]; NA=no activity", "result": ">4"}
    ]},
    {"smiles": "COc1cc(C(=N)N)ccc1OCc1cc(COc2ccc(C(=N)N)cc2OC)cc(C(C)(C)C)c1", "note": "[drawing 843]", "values": [
      {"measurement": "MIC", "setting": "[4]", "result": 12, "unit": "µM"}
    ]},
    {"smiles": "Cc1cc(CCc2ccc(C(=N)N)cc2)cc(CCc2ccc(C(=N)N)cc2)c1", "note": "[drawing 838]", "values": [
      {"measurement": "SF (MRSA) at 3 μM", "setting": "[3]; compound at 3 μM", "result": "16-fold at 3 μM"},
      {"measurement": "MIC", "setting": "[4]", "result": 12, "unit": "µM"}
    ]},
    {"smiles": "CC(C)NC(=N)c1ccc(OCc2cccc(COc3ccc(C(=N)NC(C)C)cc3)c2F)cc1", "note": "[drawing 839]", "values": [
      {"measurement": "SF (MRSA) at 4 μM", "setting": "[3]", "result": "16-fold at 4 μM"},
      {"measurement": "MIC", "setting": "[4]", "result": 12.5, "unit": "µM"}
    ]},
    {"smiles": "Cc1cc(COc2ccc(C(=N)N)cc2)nc(COc2ccc(C(=N)N)cc2)c1", "values": [
      {"measurement": "SF (E. coli) at 12.5 μM", "setting": "[1]; erythromycin", "result": 8, "unit": "fold"},
      {"measurement": "SF (E. coli) at 25 μM", "setting": "[1]; erythromycin", "result": 32, "unit": "fold"},
      {"measurement": "SF (E. coli)", "setting": "[1]; sensitization fold = IC90 of erythromycin without/with compound, compound concentration not given, T=toxic", "result": 33},
      {"measurement": "SF (B. subtilis) at 6 μM", "setting": "[2]; erythromycin, NA=no activity", "result": 8, "unit": "fold"},
      {"measurement": "SF (B. subtilis) at 12 μM", "setting": "[2]; erythromycin, NA=no activity", "result": 32, "unit": "fold"},
      {"measurement": "SF (B. subtilis)", "setting": "[2]; NA=no activity", "result": "> 30"}
    ]}
  ]
}
